Assays:
veines saphènes de lapin = test: Contraction of isolated rabbit saphenous veins produced by KCl (40 mM); assay type: cell-based; details: for augmentation des contractions des veines saphènes de lapin produites par le KCl: KCl 40 mM, compounds 10 nM à 30 mM; for EC50: increase of KCl (40 mM) contraction of rabbit saphenous veins, read-out: DE₅₀
From the text: L'effet contractile est mesuré in vitro : • par la force de contraction développée par des anneaux vasculaires quiescents ou stimulés (soit électriquement soit par des agents physiologiques) et maintenus dans des conditions isométriques, • par la pression développée par des réseaux vasculaires perfusés à débit constant.
Les composés de formule (I) et leurs sels éventuels augmentent la contraction des veines saphènes animales produite par la noradrénaline et la dépolarisation (solution hyperpotassique) sans affecter, dans la majorité des cas, les réponses contractiles artérielles. A titre illustratif, les composés des exemples 1, 2, 3, 5 (10 nM à 30 mM) augmentent de plus de 40 % (DE₅₀ + 0,3 microM) les contractions des veines saphènes de lapin produites par le KCl (40 mM).

[1] = test system: hyperperméabilité vasculaire induite par le zymosan; test: Vascular hyperpermeability induced by zymosan, in vivo; details: oral administration of 1-20 mg/kg
From the text: La perméabilité vasculaire est étudiée in vivo et in vitro par la mesure de l'extravasation d'albumine ou de colorant liant l'albumine (Bleu Evans). In vivo, l'hyperperméabilité est induite par l'injection d'une solution d'histamine, de bradykinine ou de zymosan. Les modèles in vitro permettent de réaliser des hyperpressions (sur un territoire vasculaire isolé) et/ou des réactions vasculaires inflammatoires.
A titre illustratif, les composés des exemples 1, 2, 3, 5 inhibent l'hyperperméabilité vasculaire induite par le zymosan après administration orale de 1-20 mg/kg.

[2] = Free radical scavenging, DPPH model; assay type: biochemical; details: DPPH as stable free radical, in vitro
From the text: L'effet "piégeur de radicaux libres" global est étudié in vitro par un modèle utilisant le 1,1-diphényl-2-picrylhydrazyl (DPPH) comme radical libre stable, méthode dérivée de celle décrite par Lamaison et col., Plantes Médic. et Phytothérapie, XXII, 1988, 231-234.

rat = test: Carrageenan-induced pleurisy in the rat; assay type: in vivo; details: 5 mg/kg i.p. twice; for migration leucocytaire dans la cavité pleurale: 6 hours after carrageenan injection; for oedème: 6 hours after carrageenan injection into the pleural cavity
Protocol: L'activité antiinflammatoire est démontrée par la mesure de l'inhibition de l'oedème et de la migration leucocytaire après induction d'une pleurésie chez le rat par injection de carragénine dans la cavité pleurale (Almeida et col., J. Pharmacol. Exp. Therap., 1980, 214 : 74).
Le composé des exemples 31, 3, 5 administrés deux fois en i.p. à la dose de 5 mg/kg inhibent l'oedème et la migration leucocytaire dans la cavité pleurale, 6 heures après injection de carragénine dans le modèle de la pleurésie chez le rat.

Structure (SMILES) | augmentation des contractions des veines saphènes de lapin produites par le KCl (veines saphènes de lapin) [%] | EC50 (veines saphènes de lapin) [nM] | hyperperméabilité vasculaire induite par le zymosan [1] | effet antiradicalaire [2] | migration leucocytaire dans la cavité pleurale (rat) | oedème (rat)
O=c1c(=NNc2nc3ccccc3s2)c(=O)c2ccccc12 [exemple 1, 2-(Benzothiazol-2-yl-hydrazono)-2.3-dihydro-1.3-dioxo-1H-indene] | > 40 | ~300 | inhibent |  |  | 
O=c1c(=NNc2nc3ccccc3o2)c(=O)c2ccccc12 [exemple 2, 2-(Benzoxazol-2-yl-hydrazono)-2.3-dihydro-1.3-dioxo-1H-indene] | > 40 | ~300 | inhibent | effet antiradicalaire |  | 
O=c1c(=NNc2nc3ccccc3[nH]2)c(=O)c2ccccc12 [exemple 3, 2-(Benzimidazol-2-yl-hydrazono)-2.3-dihydro-1.3-dioxo-1H-indene] | > 40 | ~300 | inhibent |  | inhibent | inhibent
O=c1c(=NNc2nc3cnccc3[nH]2)c(=O)c2ccccc12 [exemple 5, 2-(5-Azabenzimidazol-2-yl-hydrazono)-2.3-dihydro-1.3-dioxo-1H-indene] | > 40 | ~300 | inhibent |  | inhibent | inhibent
O=C(NN=c1c(=O)c2cccnc2c1=O)Nc1ccccc1 [exemple 6, 5.7-Dioxo-6-(phenylaminocarbonylhydrazono)cyclopenta[b]pyridine] |  |  |  | effet antiradicalaire |  | 

From EP0646579A1, “Ketonic indane derivatives and heterocyclic analysis and their use in therapy” (LABORATOIRE INNOTHERA Société Anonyme, priority 1993, dated 1995)
